From PubChem BioAssay AID651630 (Sanford-Burnham Center for Chemical Genomics, 2012)
Calls of active or inactive are those of the source.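 How the source made its calls: active means lipid-stain IC50 at or below a set limit, with nuclear-stain toxicity IC50 at least five times higher; inactive means the rest.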

Experiments:
[1] = test system: DAPI; assay: triacylglycerol accumulation inhibitor potency, dose response, cell-based, panel, Nile Red and DAPI fluorescence, H9c2 (AID 651630); settings: H9c2 cells, DAPI nuclear fluorescence (cytotoxicity counter-readout), oleic acid;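 further: cells exposed to compound overnight before fixation and staining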
[2] = test system: TAG; assay: as above; settings: H9c2 cells, Nile Red TAG fluorescence, oleic acid

Compound | IC50 cytotoxicity (DAPI nuclear signal decrease) ([1]; mean of runs) | IC50 cytotoxicity (DAPI nuclear signal decrease) ([1]; run 1) [µM] | IC50 cytotoxicity (DAPI nuclear signal decrease) ([1]; run 2) [µM] | IC50 ([2]; mean of runs) | IC50 ([2]; run 1) [µM] | IC50 ([2]; run 2) [µM]
O=[N+]([O-])c1cc(S(=O)(=O)Nc2cccc(Cl)c2)ccc1N/N=C/c1ccc(N2CCOCC2)cc1 | > 25 µM (inactive) | > 25 | > 25 | 13.6 µM | 12.5 | 14.7
Cc1ccc(N2C(=O)C3CC(c4ccccc4)=C4C5C=CC(C6C(=O)N(c7ccc(C)cc7C)C(=O)C56)C4C3C2=O)c(C)c1 (stereo not drawn) | > 25 µM (inactive) | > 25 | > 25 | – | 22.3 | > 25
CCOCCOC(=O)c1[nH]c2c(c1C)C(=O)CC(c1cccs1)C2 (stereo not drawn) | > 25 µM (inactive) | > 25 | > 25 | > 25 µM (inactive) | > 25 | > 25
CCN1C(=O)[C@H]2[C@@H](c3ccc(-c4ccccc4)c(OC)c3)N[C@@](CC(C)C)(C(=O)OC)[C@H]2C1=O | > 25 µM (inactive) | > 25 | > 25 | 10.3 µM | 12.4 | 8.14
CC(C)CN(C#N)c1nc(N2CCOCC2)nc(N2CCOCC2)n1 | > 25 µM (inactive) | > 25 | > 25 | 20.5 µM (inactive) | 19.4 | 21.5
COc1cc(OC)c2c(-c3ccccc3)cc(=O)oc2c1C(CCN1CCN(c2ccccc2)CC1)c1ccc(N(C)C)cc1 (stereo not drawn) | > 25 µM (inactive) | > 25 | > 25 | 6.35 µM | 6.75 | 5.95
COc1cc(C(=O)N2CCN(c3cc(Cl)ccc3Cl)CC2)cc(OC)c1OC | > 25 µM (inactive) | > 25 | > 25 | > 25 µM (inactive) | > 25 | > 25
Cc1ccccc1OCCNc1cc(N2CC(C)NC(C)C2)ccc1[N+](=O)[O-] (stereo not drawn) | > 25 µM (inactive) | > 25 | > 25 | 13.1 µM | 14.6 | 11.6
O=C(CCl)N(CCCNC(=O)C(F)(F)F)c1ccc([N+](=O)[O-])cc1 | > 25 µM (inactive) | > 25 | > 25 | > 25 µM (inactive) | > 25 | > 25
CC(=O)c1ccc(-c2cnc3c(NC=O)cc(-c4ccc(C(=O)NC5CC5)cc4)cn23)cc1 | > 25 µM (inactive) | > 25 | > 25 | > 25 µM (inactive) | > 25 | > 25
O=C1NC(Cc2ccc(O)cc2)c2nc3ccc(Cl)cc3c(=O)n2-c2cc3ccccc3cc21 (stereo not drawn) | > 25 µM (inactive) | > 25 | > 25 | > 25 µM (inactive) | > 25 | > 25
CCC(C)(C)NC(=O)C(c1cccn1C)N(Cc1ccc(OC)cc1)C(=O)Cn1nnc2ccccc21 (stereo not drawn) | > 25 µM (inactive) | > 25 | > 25 | > 25 µM (inactive) | > 25 | > 25
C[C@@H]1CN([C@@H](C)CO)C(=O)c2cccc(NC(=O)Nc3ccc(F)cc3)c2O[C@@H]1CN(C)Cc1ccc(Oc2ccccc2)cc1 | – | > 25 | > 25 | 1.42 µM | 1.71 | 1.14
O=C(Nc1ccc(-c2csc(Nc3cccc(C(F)(F)F)c3)n2)cc1)c1ccccc1 | > 25 µM (inactive) | > 25 | > 25 | – | 22.3 | > 25
Cc1ccc(C(=O)Nc2cc(C)c(OCC(=O)N3CCOCC3)c(C)c2)cc1 | > 25 µM (inactive) | > 25 | > 25 | > 25 µM (inactive) | > 25 | > 25
CCOc1ccc(Cc2nnc(SCC(=O)Nc3ccccc3)n(N)c2=O)cc1 | > 25 µM (inactive) | > 25 | > 25 | 5.04 µM | 5.36 | 4.71
